Laboratory results published in CN103330941A, “一种紫杉醇注射剂的药物组合物” (Individual, priority 2013, dated 2013).

What was measured:
[1] = in the human body; cited from earlier work
[2] = cited from earlier work
[3] = Experiment 2, formulation screening: dissolution of paclitaxel; assay type: physicochemical

Structure (SMILES)	effective bioavailability [1]	solubility in organic solvents (in words) ([2]; methanol, ethanol or chloroform)	solubility in water (in words) ([2]; water)	solubilizing (hydrotropic) effect on paclitaxel ([3]; alone)	solubilizing (hydrotropic) effect on paclitaxel ([3]; used together with 1,2-propanediol)
CC(=O)O[C@H]1C(=O)[C@@]2(C)[C@H]([C@H](OC(=O)c3ccccc3)[C@]3(O)C[C@H](OC(=O)[C@H](O)[C@@H](NC(=O)c4ccccc4)c4ccccc4)C(C)=C1C3(C)C)[C@]1(OC(C)=O)CO[C@@H]1C[C@@H]2O [紫杉醇, 5β,20-环氧-1,2α,4,7β,10β,13α-六羟基紫杉烷-11-烯-9-酮-4,10-二乙酸酯-2-苯甲酸酯-13[(2’R,3’S)-N-苯甲酰-3-苯基异丝氨酸酯]]	低	溶解	几乎不溶		
CC(=O)Oc1ccccc1C(=O)[O-].[Na+] [乙酰水杨酸钠]				具有助溶作用	具有增加的助溶作用
